{"source": "patent US4600715A", "about": "“Benzodiazepine antagonistic β-carboline derivatives and compositions thereof” (Shering Aktiengesellschaft, priority 1983, dated 1986)", "data": [{"target": "benzodiazepine receptors", "assay": "in vitro displacement of specific ^3 H flunitrazepam binding, cerebral membrane suspension", "settings": "^3 H flunitrazepam 1.0 nM, 0° C.; rat cerebrum, pH 7.1; concentration effecting 50% displacement of specific binding", "units": {"IC50 (in vitro), displacement activity": "ng/mL"}, "values": [{"smiles": "CCOC(=O)c1ncc2[nH]c3ccc(C(=O)N(C)C)cc3c2c1COC", "note": "[CO2 Et, CH2 OCH3, CON(CH3)2, 6-N,N-dimethylcarbamoyl-4-methoxymethyl-β-carboline-3-carboxylic acid ethyl ester]", "IC50 (in vitro), displacement activity": 1.3}, {"smiles": "C=CCN(CC=C)C(=O)c1ccc2[nH]c3cnc(C(=O)OCC)c(C)c3c2c1", "note": "[CO2 Et, CH3, CON(Allyl)2, 6-N,N-diallylcarbamoyl-4-methyl-β-carboline-3-carboxylic acid ethyl ester]", "IC50 (in vitro), displacement activity": 0.4}, {"smiles": "CCOC(=O)c1cc2c(cn1)[nH]c1ccc(C(=O)N3CCCCC3)cc12", "note": "[CO2 Et, H, drawing 10, 6-piperidinocarbonyl-β-carboline-3-carboxylic acid ethyl ester]", "IC50 (in vitro), displacement activity": 0.6}, {"smiles": "CCCOC(=O)c1ccc2[nH]c3cnc(C(=O)OCC)c(C)c3c2c1", "note": "[CO2 Et, Me, COOC3 H7, 6-propoxycarbonyl-4-methyl-β-carboline-3-carboxylic acid ethyl ester]", "IC50 (in vitro), displacement activity": 0.5}, {"smiles": "CCc1noc(-c2cc3c(cn2)[nH]c2ccc(C(=O)N4CCCCC4)cc23)n1", "note": "[drawing 11, H, drawing 12, 3-(5'-[3'-ethyl-1',2',4'-oxadiazol]yl)-β-carboline-6-carboxylic acid piperidide]", "IC50 (in vitro), displacement activity": 0.6}]}, {"target": "benzodiazepine receptors", "assay": "not given", "settings": "comparison compound marked *Nature 294: 472 (1981); ^3 H flunitrazepam 1.0 nM, 0° C.; cited from earlier work", "units": {"IC50 (in vitro), displacement activity": "ng/mL"}, "values": [{"smiles": "COC(=O)c1cc2c(cn1)[nH]c1ccccc12", "note": "[CO2 Me, H, H]", "IC50 (in vitro), displacement activity": 1.9}]}]}
